Data: patent US12234288B2, “Immunogenic arginase 2 polypeptides” (IO Biotech ApS, priority 2018, dated 2025)
Entries after “also recorded” stand apart in the source; their conditions may differ.

Columns and labels:
[1] = test system: ARG2-specific T cells; assay: ARG2-specific CD4+ T cell culture: IFNy ELISPOT and intracellular cytokine staining toward peptide or target cells; assay type: cell-based, human; settings: for recognition of peptide-pulsed cells by ARG2-specific T cells: IFNy ELISPOT, FIG. 17A; for specificity of the ARG2-specific T cell culture to peptide: intracellular cytokine staining for TNFα and IFNy and IFNy ELISPOT, FIG. 16A/B
Protocol: ELISPOT assays with ARG2-specific T cells (effector cells) and various immune or cancer cells as target cells (target cells) were setup by placing 1-5×10^4 effector cells (as indicated) and 1-2.5×10^4 target cells (as indicated) in the bottom of an ELISPOT well. Peptide pulsing of target cells were performed by incubation of cells with 20 μM peptide for lhr followed by two washes to remove unbound peptide. These cells served as positive control. Effector cells plated without target cells served as negative control. All conditions were setup in triplicates or quadruplicates.
(§1) Intracellular staining of cell cultures was performed on PBMCs after one week of ARG2-derived peptide stimulation in vitro. For the assay, 9×10^5 PBMCs were re-stimulated with ARG2-derived peptides (or incubated with no peptide as a control) for 5 hours in the presence of BD GolgiPlug™ (added after the first hour of peptide stimulation). Stimulated cells were stained with fluorescently labeled antibodies for surface markers (CD3, CD4, CD8) and thereafter permeabilized by using Fixation/Permeabilization and Permeabilization Buffer (eBioscience, cat. 00-{5123-43), according to manufacturer's instructions. Permeabilized cells were then stained with fluorochrome-labeled antibodies for IFNγ and TNFα. Flow cytometry analysis was performed on a FACSCanto™ II (BD Biosciences). Antibodies used: IFNγ-APC, TNFα-BV421, CD4-PerCP, CD8-FITC, CD3-APC-H7, CD4-FITC, CD8-PerCP, and dead cells stain-FVS510 (all from BD Biosciences) according to manufacturer's instructions. For intracellular cytokine staining to detect cytokine production of ARG2-specific T cells in response to target cells, 5×10^5 ARG2 specific cells were incubated with 2.5×10^5 target cells for 5 hours with GolgiPlug™ added after the first hour.
The ARG2-specific T cell culture was established by initial stimulation of PMBCs from a prostate cancer patient with irradiated ARG2-1 loaded autologous mature dendritic cells. The following day IL-12 (20 U/ml) and IL-7 (40 U/ml) was added. PBMCs were restimulated every 8 days with ARG2-1 peptide loaded autologous DCs followed by addition of IL-2 (120 U/ml) the next day. ARG2-specific T cells were enriched using IFNy enrichment kit (MiltenyiBiotec) after 4 stimulations. Cells were expanded and ARG2-specific T cells were further enriched using CD4+ enrichment kit (MiltenyiBiotec).
For mRNA, DCs or cancer cells were transfected with ARG1-DC-LAMP mRNA, ARG2-DC-LAMP mRNA or control mRNA encoding eGFP using electroporation parameters as previously described. Briefly, cells were washed twice in Opti-MEM medium (Thermo Scientific) and adjusted to a final cell concentration of 9-12×10^6 cells/ml. 350 μl cell suspension was preincubated on ice for 5 minutes before addition of 10 μg mRNA. The cell suspension was then quickly transferred into a 2-mm (cancer cells) or 4-mm (DCs) gap electroporation cuvette and electroporated (ref: OM paper). After electroporation, cells were quickly transferred to a dish with pre-warmed medium and incubated in humidified atmosphere with 5% CO2 before use for different experimental analysis. mRNA transfected cells were rested for 1 hr before they were setup in ELISPOT assay or rested overnight before set up in intracellular cytokine staining assay. Electroporation efficiency was determined 24 hours post transfection by FACS analysis of the GFP transfected cells. […]

[2] = test system: PBMCs (CD4+ and CD8+ T cells); assay: Intracellular cytokine staining (IFNγ, TNFα) of peptide-stimulated PBMCs by flow cytometry; assay type: cell-based, human; settings: for double positive (DP) CD4+ cells: FIG. 6; for intracellular cytokine staining for IFNy and TNFα production: healthy donors and cancer patients with solid tumors, Example 2, FIG. 14B/15D
Protocol: Intracellular staining of cell cultures was performed after PBMCs were stimulated with arginase-derived peptides (or incubated with no peptide as a control) for 5 hours in the presence of BD GolgiPlug™ (added after the first hour of peptide stimulation). Stimulated cells were stained with fluorescently labeled antibodies for surface markers (CD3, CD4, CD8) and thereafter permeabilized by using Fixation/Permeabilization and Permeabilization Buffer (eBioscience, cat. 00-{5123-43), according to manufacturer's instructions. Permeabilized cells were then stained with fluorochrome-labeled antibodies for IFNγ and TNFα. Flow cytometry analysis was performed on a FACSCanto™ II (BD Biosciences). Antibodies used: IFNγ-APC (cat.341117), TNFα-[…] BV421 (cat.562783), CD4-FITC (cat.347413), CD8-PerCP (cat.345774), CD3-APC-H7 (cat. 560275) (all from BD Biosciences), dead cells stain-FVS510 (564406, BD Biosciences) according to manufacturer's instructions.
as §1

Sequence	recognition of peptide-pulsed cells by ARG2-specific T cells ([1]; MONO-MAC-1 cells)	recognition of peptide-pulsed cells by ARG2-specific T cells ([1]; OCI-AML2 cells)	recognition of peptide-pulsed cells by ARG2-specific T cells ([1]; THP-1 cells)	specificity of the ARG2-specific T cell culture to peptide [1]	double positive (DP) CD4+ cells ([2]; healthy donor Buf-M-01, IFN-gamma and TNF-alfa)	double positive (DP) CD4+ cells ([2]; healthy donor Buf-M-02, IFN-gamma and TNF-alfa)	intracellular cytokine staining for IFNy and TNFα production [2]	CD8+ T cell response in intracellular cytokine staining ([2]; one cancer patient, FIG. 9)	CD8+ DP cells ([2]; prostate cancer patient UR12, control 0.5%, FIG. 9)	CD4+ T cell response in intracellular cytokine staining ([2]; two healthy donors, Example 1, FIG. 6)
LQTRVHSILKKSVHSVAVIG (listed as Homo sapiens) [ARG2_1, polypeptide derived from human Arginase2, aa11-30]	effectively recognized	effectively recognized	effectively recognized	highly specific	0.2%	0.1%	primarily showed CD4+ responses	release more of IFN-gamma (y-axis) and TNF-alfa (x-axis)	0.9%	reacting specifically; also recorded: release both IFN-gamma (y-axis) or TNF-alfa (x-axis)
SLRGSLSRLLQTRVHSILKKSVHSVAVIGAPFS (listed as Homo sapiens) [A2L2, long ARG2 peptide, aa2-34, 33-mer]				highly specific			only CD4+ responses			
